Reference: patent US7786134B2, “Lipophilic anticancer drug compounds, compositions and related methods” (Sonus Pharmaceuticals, Inc., priority 2005, dated 2010)
Like-named read-outs stand apart in the source and are kept apart here.

Columns and labels:
[1] = system: HCT-116 (COLON); experiment: In vitro cytotoxicity (GI50), Sulforhodamine B staining, HCT-116; type: cell-based; conditions: HCT-116 cells, 48 hours contact, read-out: Concentration that produce 50% cell growth inhibition (GI50) HCT-116 (COLON)
Procedure: (§1) The study was performed using a solution of the lipophilic anticancer drug compounds in DMSO (1 mM) diluted in the corresponding cell media. The cells were in contact with varying concentrations of the test article for a period of 48 hours. At the end of 48 hours, staining with Sulforhodamine B was performed to determine the number of viable cells and calculate the degree of cellular growth inhibition as compared to a control group.

[2] = system: HCT-15 (colorectal); experiment: In vitro cytotoxicity (GI50), Sulforhodamine B staining, HCT-15; type: cell-based; conditions: HCT-15 cells, 48 hours contact, read-out: Concentration that produce 50% cell growth inhibition (GI50) HCT-15 (COLON)
Procedure: as §1

[3] = system: SKOV-3 (ovarian); experiment: In vitro cytotoxicity (GI50), Sulforhodamine B staining, SKOV-3; type: cell-based; conditions: SKOV-3 cells, 48 hours contact, read-out: Concentration that produce 50% cell growth inhibition (GI50) SKOV-3 (OVARIAN)
Procedure: as §1

[4] = system: H460 (non-small cell lung); experiment: In vitro cytotoxicity (GI50), Sulforhodamine B staining, H460; type: cell-based; conditions: H460 cells, 48 hours contact, read-out: Concentration that produce 50% cell growth inhibition (GI50) H460 (NSCLC)
Procedure: as §1

[5] = system: SKOV-3 (ovarian); conditions: SKOV-3 cells, National Cancer Institute (NCI) GI50 values; read-out: Concentration that produce 50% cell growth inhibition (GI50) SKOV-3 (OVARIAN); cited from earlier work
[6] = system: HCT-15 (colorectal); conditions: HCT-15 cells, National Cancer Institute (NCI) GI50 values; read-out: Concentration that produce 50% cell growth inhibition (GI50) HCT-15 (COLON); cited from earlier work
[7] = system: H460 (non-small cell lung); conditions: H460 cells, National Cancer Institute (NCI) GI50 values; read-out: Concentration that produce 50% cell growth inhibition (GI50) H460 (NSCLC); cited from earlier work
[8] = system: HCT-116 (COLON); conditions: HCT-116 cells, National Cancer Institute (NCI) GI50 values; read-out: Concentration that produce 50% cell growth inhibition (GI50) HCT-116 (COLON); cited from earlier work

Molecule	GI50 [1]	GI50 [2]	GI50 [3]	GI50 [4]	GI50 [5]	GI50 [6]	GI50 [7]	GI50 [8]
10-(N-n-butyl carbamate)-7-ethylcamptothecin	1.1 nM	44.7 nM	0.398 nM	1.2 nM	–	–	–	–
10-(n-butyl carbonoyloxy)-7-ethylcamptothecin	0.58 nM	120 nM	0.275 nM	2.95 nM	–	–	–	–
CCc1c2c(nc3ccc(O)cc13)-c1cc3c(c(=O)n1C2)COC(=O)[C@]3(O)CC [7-ethyl-10hydroxycamptothecin, 7-ethyl-10-hydroxycamptothecin]	–	–	–	–	1 nM	7.9 nM	1.4 nM	21 nM
CCCCCCCCOC(=O)CCC(=O)Oc1ccc2nc3c(c(CC)c2c1)Cn1c-3cc2c(c1=O)COC(=O)C2(O)CC (centres unmarked) [10-(1-octyl succinate)-7-ethylcamptothecin]	9.75 nM	661 nM	3.46 nM	2460 nM	–	–	–	–
CCc1c2c(nc3ccc(OC(=O)CCC(=O)OCc4c(C)c(C)c(C)c(C)c4C)cc13)-c1cc3c(c(=O)n1C2)COC(=O)C3(O)CC (centres unmarked) [10-(2,3,4,5,6-pentamethylbenzyl succinate)-7-ethylcamptothecin]	3.09 nM	32.4 nM	2.13 nM	3.82 nM	–	–	–	–
CCc1c2c(nc3ccc(OC(=O)CCC(=O)OCc4c(C)cc(C)cc4C)cc13)-c1cc3c(c(=O)n1C2)COC(=O)C3(O)CC (centres unmarked) [10-(2,4,6-trimethylbenzyl succinate)-7-ethylcamptothecin]	3.54 nM	31.6 nM	3.67 nM	5.12 nM	–	–	–	–
CCCCOc1ccc(C(=O)Oc2ccc3nc4c(c(CC)c3c2)Cn2c-4cc3c(c2=O)COC(=O)C3(O)CC)cc1 (centres unmarked) [10-(4-butoxybenzoyloxy)-7-ethylcamptothecin]	5.62 nM	141 nM	5.5 nM	28.2 nM	–	–	–	–
CCc1c2c(nc3ccc(OC(=O)CCC(=O)OCc4ccc(C)cc4)cc13)-c1cc3c(c(=O)n1C2)COC(=O)C3(O)CC (centres unmarked) [10-(4-methylbenzyl succinate)-7-ethylcamptothecin]	2.29 nM	75.4 nM	6.16 nM	5.37 nM	–	–	–	–
CCc1c2c(nc3ccc(OC(=O)NC(C)(C)C)cc13)-c1cc3c(c(=O)n1C2)COC(=O)C3(O)CC (centres unmarked) [10-(N-t-butyl carbamate)-7-ethylcamptothecin]	15.1 nM	158 nM	1.29 nM	5.75 nM	–	–	–	–
CCc1c2c(nc3ccc(OC(=O)CC4(CC(=O)OCc5ccccc5)CCCC4)cc13)-c1cc3c(c(=O)n1C2)COC(=O)[C@]3(O)CC [10-(benzyl 3,3-tetramethyleneglutarate)-7-ethylcamptothecin]	3.49 nM	85.1 nM	2.95 nM	8.91 nM	–	–	–	–
CCc1c2c(nc3ccc(OC(=O)CCC(=O)OCc4ccccc4)cc13)-c1cc3c(c(=O)n1C2)COC(=O)C3(O)CC (centres unmarked) [10-(benzyl succinate)-7-ethylcamptothecin]	10.7 nM	50.1 nM	1.29 nM	0.372 nM	–	–	–	–
CCc1c2c(nc3ccc(OCc4ccccc4)cc13)-c1cc3c(c(=O)n1C2)COC(=O)[C@]3(O)CC [10-benzyloxy-7-ethylcamptothecin]	4.52 nM	5.66 nM	15 nM	0.32 nM	–	–	–	–
CC[C@@]1(O)C(=O)OCc2c1cc1n(c2=O)Cc2cc3cc(O)ccc3nc2-1 [10-hydroxycamptothecin]	–	–	–	–	–	356 nM	11 nM	27 nM
CCCCCCCCOC(=O)CCC(=O)OC1(CC)C(=O)OCc2c1cc1n(c2=O)Cc2cc3ccccc3nc2-1 (centres unmarked) [20-(1-octyl succinate)camptothecin]	766 nM	354 nM	2420 nM	165 nM	–	–	–	–
CCC1(OC(=O)CCC(=O)OCc2ccccc2)C(=O)OCc2c1cc1n(c2=O)Cc2cc3ccccc3nc2-1 (centres unmarked) [20-(benzyl succinate)camptothecin]	630 nM	1300 nM	562 nM	380 nM	–	–	–	–
CC[C@@]1(O)C(=O)OCc2c1cc1n(c2=O)Cc2cc3ccccc3nc2-1 [Camptothecin]	–	–	–	–	25 nM	160 nM	16 nM	40 nM
CCc1c2c(nc3ccc(OC(=O)N4CCC(N5CCCCC5)CC4)cc13)-c1cc3c(c(=O)n1C2)COC(=O)[C@]3(O)CC [Irrinotecan, irinotecan]	–	–	–	–	–	–	5100 nM	7900 nM
CC[C@@]1(O)C(=O)OCc2c1cc1n(c2=O)Cc2cc3c(CN(C)C)c(O)ccc3nc2-1 [Topotecan, topotecan]	–	–	–	–	–	501 nM	19.9 nM	39.8 nM
